Measurements reported in patent US7947505B2, “Method for testing efficacy of antithrombotic agent” (priority 2005, dated 2011).
Read-outs that look alike come from different tables or passages of the source.

Legend:
[1] = test system: blood sampled from a patient being administered an antithrombotic agent; test: Thromboelastograph of blood sampled after administration of an antithrombotic agent, with anticoagulant with or without ADP or collagen added; format: in vivo, human; conditions: for R value: ADP 8.3 μM, collagen 10 μg/mL
Source text: (§1) The present invention is described below based on embodiments. The thromboelastograph will be described first. A thromboelastograph is an apparatus that tracks the process of blood coagulation by the clot elasticity in whole blood. […] The reaction time R representing the time when the range of the clot elasticity value reaches 2 mm, the coagulation time K representing the time when the range of the clot elasticity value reaches 20 mm, the maximum amplitude MA of the range of the clot elasticity values, the angle ANG formed by a tangent drawn on the graph of the changes in clot elasticity, and the like are obtained as numerical values based on the measurement chart, as shown in FIG. 1. The measurement procedure itself merely comprises placing the blood in a cuvette and beginning measurement. A C-TEG3000T machine made by Haemoscope of the United States was used as the thromboelastograph in the examples below.
(§2) The test method using the thromboelastograph will be described next in itemized form. 1) A thromboelastograph is used in measurement. The thromboelastograph used is one in which the measurement part has two or more channels, and the amount of fluid measured is 0.36 mL. 2) The blood of the patient being administered an antithrombotic agent is sampled by a blood sampling tube for coagulation testing. […] 3) 0.02 mL of 0.2 M calcium chloride and 0.32 mL of blood from the blood sampling tube are mixed with 0.01 mL of anticoagulant and 0.01 mL of physiological saline in the first measurement part (first channel) of the thromboelastograph. The calcium chloride neutralizes the citric acid admixed in the blood sampling tube, and coagulation begins. 4) 0.02 mL of 0.2 M calcium chloride and 0.32 mL of blood from the blood sampling tube are mixed with 0.01 mL of anticoagulant and 0.01 mL of adenosine diphosphate (ADP) or collagen in the second measurement part (second channel) of the thromboelastograph. The adenosine diphosphate (ADP) used here is 0.2 μmol of commercial reagent powder dissolved in 0.67 mL of physiological saline. Similarly, the collagen is 1 mg/mL stock solution diluted to a 36% solution by physiological saline. 5) The first channel and second channel are measured simultaneously by the thromboelastograph, and the R values measured on the thromboelastograph are compared. […] It is necessary in this case to strengthen the antithrombotic effect by measures such as increasing the dose or changing the antithrombotic agent being administered. The platelets in the second channel are believed to be readily activated by the ADP or collagen, and blood coagulation is accelerated. […] It is believed in this case that the platelets in the second channel are not readily activated by the ADP or collagen, and blood coagulation is not accelerated.
(§3) In the following examples and comparative examples, the addition of 0.02 mL of physiological saline of 0.2 M calcium chloride to the sampled blood and the addition of […] to the system without ADP or collagen added are common to all examples and are omitted from the explanations of each example and comparative example.
An example of the administration of aspirin as an antithrombotic agent will be described. First, 81 mg/day of aspirin was administered for three days. Blood sampled one hour after oral administration of 40.5 mg of aspirin thereafter was measured using a thromboelastograph. Specifically, thromboelastographic measurements were simultaneously carried out on the sampled blood itself, the same blood with 0.1 U/mL of heparin or 0.31 μg/mL of argatroban added, and blood obtained by adding 8.3 μM of ADP or 10 μg/mL of collagen to these.
Also, 660 mg/day of aspirin was administered for three days, and the blood sampled one hour after oral administration of 330 mg thereafter was measured in the same manner by using a thromboelastograph. […]

[2] = test system: whole blood; conditions: ADP final concentration 8.3 μM or collagen 10 μg/mL, mean±standard deviation, cited from earlier work; for M A (maximum amplitude): in mm (unit assumed)
[3] = test system: blood; test: Thromboelastograph of blood with no antithrombotic agent administered, with heparin or argatroban with or without ADP or collagen added; format: cell-based, human; conditions: for change of the R value lengthened by anticoagulant when ADP or collagen is added: blood coagulation function normal, no antithrombotic agent administered, heparin or argatroban present
Source text: as §1, §2, §3
An example of the administration of sulpyrine will be described next. […] The measurement was the same as in Example 1. Blood with 0.1 U/mL of heparin or 0.31 μg/mL of argatroban added and blood with 8.3 μM of ADP or 10 μg/mL of collagen added to these were measured simultaneously by using a thromboelastograph.
An example of the administration of Pletaal will be described next. […] The amounts of heparin, argatroban, ADP, and collagen added were the same as in Example 2.
As a comparative example, blood obtained when no thrombotic agent (*1) had been administered was measured by thromboelastograph. Specifically, systems of heparin, ADP, and collagen added to blood that contained no thrombotic agent and, similarly, systems of argatroban, ADP, and collagen added to blood that contained no thrombotic agent were measured using a thromboelastograph.

[4] = test system: blood; conditions: Hep 0.1 U/mL, ARG 0.3 μg/mL, Col 10 μg/mL, ADP 8.3 μM/L, cited from earlier work
[5] = Comparative Example, blood with no antithrombotic agent administered
[6] = no Pletaal administered (Example 3), heparin 0.1 U/mL, argatroban 0.31 μg/mL, ADP 8.3 μM, collagen 10 μg/mL
[7] = no sulpyrine administered (Example 2), heparin 0.1 U/mL, argatroban 0.31 μg/mL, ADP 8.3 μM, collagen 10 μg/mL

## Cc1c(N(C)CS(=O)(=O)[O-])c(=O)n(-c2ccccc2)n1C.[Na+] [Sulp, sulpyrine]
[1]; 250 mg of sulpyrine injected intramuscularly
  assessment of efficacy of the administered dose (R value shortened by ADP and collagen or not): functions adequately
[1]; blood sampled one hour after intramuscular injection of 250 mg of sulpyrine, heparin 0.1 U/mL, argatroban 0.31 μg/mL
  R value: 6.9 ± 2.1

## Nc1ncnc2c1ncn2[C@@H]1O[C@H](COP(=O)(O)OP(=O)(O)O)[C@@H](O)[C@H]1O [ADP, adenosine diphosphate]
[2]
  M A (maximum amplitude): 57.9 ± 2.6
[3]
  change of the R value lengthened by anticoagulant when ADP or collagen is added: shortens significantly

## collagen [Col.]
[2]; in min (unit assumed)
  K (time it takes a clot to be formed): 2.5 ± 0.5
  R (time it takes for fibrin to be formed): 5.3 ± 1.4
[2]
  M A (maximum amplitude): 57.9 ± 3.9
  R + K: 7.8 ± 1.5
[2]; listed as collagen
  K (time it takes a clot to be formed): no significant difference
  R (time it takes for fibrin to be formed): shortens significantly
  R + K: shortens significantly
[3]
  change of the R value lengthened by anticoagulant when ADP or collagen is added: shortens significantly

## CC(=O)Oc1ccccc1C(=O)O [ASP, aspirin]
[1]; 81 mg/day of aspirin for three days
  assessment of efficacy of the administered dose (R value shortened by ADP and collagen or not): insufficient to function effectively
[1]; 81 mg/day of aspirin for three days, blood sampled one hour after oral 40.5 mg, heparin 0.1 U/mL, argatroban 0.31 μg/mL
  R value: 6.4 ± 1.5
[1]; 660 mg/day of aspirin for three days
  assessment of efficacy of the administered dose (R value shortened by ADP and collagen or not): function adequately
[1]; 660 mg/day of aspirin for three days, blood sampled one hour after oral 330 mg, heparin 0.1 U/mL, argatroban 0.31 μg/mL
  R value: 6.67 ± 1.7

## O=C1CCc2cc(OCCCCc3nnnn3C3CCCCC3)ccc2N1 [Cil, cilostazol]
[1]; 200 mg/day of Pletaal
  assessment of efficacy of the administered dose (R value shortened by ADP and collagen or not): functions adequately
[1]; 200 mg/day of Pletaal for five days, blood sampled one hour after oral 100 mg, heparin 0.04 U/mL, argatroban 0.06 μg/mL
  R value: 14.5 ± 3.7
[1]; Pletaal administered, 0.1 U/mL of heparin and 0.31 μg/mL of argatroban used, R value could not be determined
  time until the blood begins to coagulate: more than 3 hours

## CC1CNc2c(cccc2S(=O)(=O)N[C@@H](CCCNC(=N)N)C(=O)N2CC[C@@H](C)C[C@@H]2C(=O)O)C1 (stereo partly shown) [ARG, argatroban]
[4]
  A N G (rapidity of clot formation): 44.5 ± 14.6
  K: 9.8 ± 5.1
  R: 29.8 ± 11.5
[4]; listed as argatroban
  K: lengthen
  R: lengthen
[3]; [5]
  R value: 29.8 ± 11.5
[3]; Comparative Example, blood with no antithrombotic agent administered, listed as argatroban
  R value: lengthens
[3]; [6]
  R value: 29.7 ± 10.5
[3]; [7]
  R value: 29.8 ± 9.5

## heparin
[4]
  A N G (rapidity of clot formation): 39.1 ± 13.9
  K: 11.4 ± 6.2
  R: 26.4 ± 10.6
[4]; listed as heparin
  K: lengthen
  R: lengthen
[3]; [5]
  R value: 26.4 ± 10.6
[3]; Comparative Example, blood with no antithrombotic agent administered, listed as heparin
  R value: lengthens
[3]; [6]
  R value: 28.6 ± 9.5
[3]; [7]
  R value: 26.4 ± 10.6
